Where two headings read alike, the source gives them in different places.
Assays:
MHCC97H cells = test: Assay for inhibiting the proliferation of MHCC97H cells (CCK-8); assay type: cell-based
Protocol: (§1) In particular, the method of the assay of small molecular compounds for inhibiting cell proliferation is as follows: • 1. Cells cultured to a logarithmic growth phase (adherent cells need to be digested with trypsin and neutralized) were taken, pipetted evenly, transferred to a 15 mL centrifuge tube, and centrifuged at 1000 rpm at room temperature for 4 minutes; • 2. The supernatant was discarded; 5 mL of complete medium was added and pipetted evenly; 10 μL of cell suspension was taken out, mixed well with 10 μL of 0.4% trypan blue, and counted under a cell counter; the proportion of living cells was ensured to be above 90%; • 3. 80 μL of cell suspension per well was seeded into a 96-well plate according to the conditions shown in the attached table, and cultured overnight; in the outer 36 wells of the 96-well plate, no cells were added but only sterile water was added; only the inner 60 wells were used for cell assay and control; • 4. 5×compound dilution: the compounds were serially diluted 3-fold to obtain a total of 9 concentrations; 80-fold overall dilution was completed with complete medium, the resulting concentration was 5 times the final drug concentration, and DMSO concentration was 1.25%; • 5. 20 μL of the corresponding compounds with different concentration gradients were added to each well of assay wells of the 96-well plate; 20 μL of complete medium was added to positive and negative control wells and shaken well; and the final concentration of DMSO in each well was 0.25%; • 6. After 72 hours of incubation, 10 μL of CCK-8 reagent was added to each well and further incubated at 37° C. for 1-2 hours; and the OD value was read at 450 nm; • 7. Cell survival rate (%)=[(As−Ab)/(Ac−Ab)]*100% • As: Assay well (medium containing cells, CCK-8, compound), • Ac: Control well (medium containing cells, CCK-8), • Ab: Blank well (CCK-8, medium without cell and compound), • 8. The values were imported into Graphpad Prism 5 software for IC50 calculation.

EBC1 cells = test: Assay for inhibiting the proliferation of EBC1 cells (CCK-8); assay type: cell-based
Protocol: as §1

Question: How did the IC50 (MHCC97H cells; Homo sapiens) turn out when `O=C(Nc1ccc(Oc2ncnc3cc(OCCCN4CCOCC4)c4c(c23)OCCO4)c(F)c1)c1cccn(-c2ccc(F)cc2)c1=O` [Example 4, N-(3-fluoro-4-((5-(3-morpholinopropoxy)-2,3-dihydro-[1,4]dioxino[2,3-f]quinazolin-10-yl)oxy)phenyl)-1-(4-fluorophenyl)-2-oxo-1,2-dihydropyridine-3-carboxamide] was run?
Answer: Its IC50 is at most 50 nM.

Question: And the IC50 (EBC1 cells; Homo sapiens, EBC-1)?
Answer: The IC50 was at most 50 nM.

Question: Which IC50 (MHCC97H cells; Homo sapiens) does the source give for `COc1cc2nccc(Oc3ccc(NC(=O)c4cn(CCF)c(=O)n(-c5ccc(F)cc5)c4=O)cc3F)c2c2c1OCCO2` [Example 101, N-(3-fluoro-4-((5-methoxy-2,3-dihydro-[1,4]dioxino[2,3-f]quinolin-10-yl)oxy)phenyl)-3-(4-fluorophenyl)-1-(2-fluoroethyl)-2,4-dioxo-1,2,3,4-tetrahydropyrimidine-5-carboxamide] here?
Answer: Its IC50 is at most 50 nM.

Question: What about the IC50 (EBC1 cells; Homo sapiens, EBC-1) of the same molecule?
Answer: Its IC50 is at most 50 nM.

Question: Which results are given for `COc1ccn(-c2ccc(F)cc2)c(=O)c1C(=O)Nc1ccc(Oc2ccnc3cc(OCCCN4CCOCC4)c4c(c23)OCCO4)c(F)c1` [Example 21, N-(3-fluoro-4-((5-(3-morpholinopropoxy)-2,3-dihydro-[1,4]dioxino[2,3-f]quinolin-10-yl)oxy)phenyl)-1-(4-fluorophenyl)-4-methoxy-2-oxo-1,2-dihydropyridine-3-carboxamide]?
Answer: IC50 (MHCC97H cells; Homo sapiens): ≤ 50 nM; IC50 (EBC1 cells; Homo sapiens, EBC-1): ≤ 50 nM

Question: Which IC50 (MHCC97H cells; Homo sapiens) does the source give for `CCOc1ccn(-c2ccc(C)cc2)c(=O)c1C(=O)Nc1ccc(Oc2ccnc3cc(OC)c4c(c23)OCCO4)c(F)c1` [Example 112, N-(3-fluoro-4-((5-methoxy-2,3-dihydro-[1,4]dioxino[2,3-f]quinolin-10-yl)oxy)phenyl)-2-oxo-4-ethoxy-1-(4-methylphenyl)-1,2-dihydropyridin-3-carboxamide] here?
Answer: Its IC50 is 200 to 1000 nM.

Question: And the IC50 (EBC1 cells; Homo sapiens, EBC-1)?
Answer: Its IC50 is 50 to 200 nM.

Question: For `CCOc1ccn(-c2ccc(F)cc2)c(=O)c1C(=O)Nc1cc(F)c(Oc2ccnc3cc(OC)c4c(c23)OCCO4)cc1Cl` [Example 115, N-(2-chloro-5-fluoro-4-((5-methoxy-2,3-dihydro-[1,4]dioxino[2,3-f]quinolin-10-yl)oxy)phenyl)-4-ethoxy-2-oxo-1-(4-fluorophenyl)-1,2-dihydropyridin-3-carboxamide], which IC50 (MHCC97H cells; Homo sapiens) is on record?
Answer: Its IC50 is at most 50 nM.

Question: And the IC50 (EBC1 cells; Homo sapiens, EBC-1)?
Answer: Its IC50 is at most 50 nM.

Question: What does the source list for `O=C(Nc1ccc(Oc2ccnc3cc(OCCCN4CCCCC4)c4c(c23)OCCO4)c(F)c1)c1cccn(-c2ccc(F)cc2)c1=O` [Example 31, N-(3-fluoro-4-((5-(3-(piperidin-1-yl)propoxy)-2,3-dihydro-[1,4]dioxino[2,3-f]quinolin-10-yl)oxy)phenyl)-1-(4-fluorophenyl)-2-oxo-1,2-dihydropyridine-3-carboxamide]?
Answer: IC50 (MHCC97H cells): ≤ 50 nM; IC50 (EBC1 cells): ≤ 50 nM

Question: With `CCOc1ccn(-c2ccc(F)cc2)c(=O)c1C(=O)Nc1ccc(Oc2ncnc3cc(OCCCN4CCOCC4)c4c(c23)OCCO4)c(F)c1` [Example 6, N-(3-fluoro-4-((5-(3-morpholinopropoxy)-2,3-dihydro-[1,4]dioxino[2,3-f]quinazolin-10-yl)oxy)phenyl)-1-(4-fluorophenyl)-4-ethoxy-2-oxo-1,2-dihydropyridine-3-carboxamide] as the molecule, how does the IC50 (MHCC97H cells; Homo sapiens) read?
Answer: The IC50 was 50 to 200 nM.

Question: And the IC50 (EBC1 cells; Homo sapiens, EBC-1)?
Answer: The IC50 was at most 50 nM.

Question: How did the IC50 (MHCC97H cells; Homo sapiens) turn out when `COc1cn(-c2ccc(F)cc2C)nc1C(=O)Nc1ccc(Oc2ccnc3cc(OCCCN4CCOCC4)c4c(c23)OCCO4)c(F)c1` [Example 27, 1-(4-fluoro-2-methylphenyl)-N-(3-fluoro-4-((5-(3-morpholinopropoxy)-2,3-dihydro-[1,4]dioxino[2,3-f]quinolin-10-yl)oxy)phenyl)-4-methoxy-1H-pyrazole-3-carboxamide] was run?
Answer: The IC50 was 50 to 200 nM.

Question: What about the IC50 (EBC1 cells; Homo sapiens, EBC-1) of the same molecule?
Answer: Its IC50 is 50 to 200 nM.

Question: How did the IC50 (MHCC97H cells; Homo sapiens) turn out when `COc1ccn(-c2ccc(F)cc2)c(=O)c1C(=O)Nc1ccc(Oc2ccnc3cc(OCCCN4CCCCC4)c4c(c23)OCCO4)c(F)c1` [Example 32, N-(3-fluoro-4-((5-(3-(piperidin-1-yl)propoxy)-2,3-dihydro-[1,4]dioxino[2,3-f]quinolin-10-yl)oxy)phenyl)-1-(4-fluorophenyl)-4-methoxy-2-oxo-1,2-dihydropyridine-3-carboxamide] was run?
Answer: The IC50 was 50 to 200 nM.

Question: And the IC50 (EBC1 cells; Homo sapiens, EBC-1)?
Answer: The IC50 was at most 50 nM.

Question: `COc1cc2nccc(Oc3ccc(NC(=O)c4cccn(-c5ccc(F)cc5)c4=O)cc3F)c2c2c1OCCO2` [Example 17, N-(3-fluoro-4-((5-methoxy-2,3-dihydro-[1,4]dioxino[2,3-f]quinolin-10-yl)oxy)phenyl)-1-(4-fluorophenyl)-2-oxo-1,2-dihydropyridine-3-carboxamide] was tested. Which IC50 (MHCC97H cells; Homo sapiens) did it give?
Answer: The IC50 was at most 50 nM.

Question: And the IC50 (EBC1 cells; Homo sapiens, EBC-1)?
Answer: The IC50 was at most 50 nM.

Question: Which results are given for `CCOc1ccn(-c2ccc(Cl)cc2)c(=O)c1C(=O)Nc1ccc(Oc2ccnc3cc(OC)c4c(c23)OCCO4)c(F)c1` [Example 113, N-(3-fluoro-4-((5-methoxy-2,3-dihydro-[1,4]dioxino[2,3-f]quinolin-10-yl)oxy)phenyl)-2-oxo-4-ethoxy-1-(4-chlorophenyl)-1,2-dihydropyridin-3-carboxamide]?
Answer: IC50 (MHCC97H cells; Homo sapiens): 50 to 200 nM; IC50 (EBC1 cells; Homo sapiens, EBC-1): 50 to 200 nM

Question: For `COCCOc1cc2nccc(Oc3ccc(NC(=O)c4c(OC)ccn(-c5ccc(F)cc5)c4=O)cc3F)c2c2c1OCCO2` [Example 35, N-(3-fluoro-4-((5-(2-methoxyethoxy)-2,3-dihydro-[1,4]dioxino[2,3-f]quinolin-10-yl)oxy)phenyl)-1-(4-fluorophenyl)-4-methoxy-2-oxo-1,2-dihydropyridine-3-carboxamide], which IC50 (MHCC97H cells; Homo sapiens) is on record?
Answer: The IC50 was at most 50 nM.

Question: And the IC50 (EBC1 cells; Homo sapiens, EBC-1)?
Answer: The IC50 was at most 50 nM.

Question: `COc1cc2nccc(Oc3ccc(NC(=O)c4c(OC)ccn(-c5ccc(F)cc5)c4=O)cc3F)c2c2c1OCCO2` [Example 18, N-(3-fluoro-4-((5-methoxy-2,3-dihydro-[1,4]dioxino[2,3-f]quinolin-10-yl)oxy)phenyl)-1-(4-fluorophenyl)-4-methoxy-2-oxo-1,2-dihydropyridine-3-carboxamide] was tested. Which IC50 (MHCC97H cells; Homo sapiens) did it give?
Answer: Its IC50 is at most 50 nM.

Question: What about the IC50 (EBC1 cells; Homo sapiens, EBC-1) of the same molecule?
Answer: Its IC50 is at most 50 nM.

Question: Which results are given for `COCCOc1cc2nccc(Oc3ccc(NC(=O)c4cccn(-c5ccc(F)cc5)c4=O)cc3F)c2c2c1OCCO2` [Example 34, N-(3-fluoro-4-((5-(2-methoxyethoxy)-2,3-dihydro-[1,4]dioxino[2,3-f]quinolin-10-yl)oxy)phenyl)-1-(4-fluorophenyl)-2-oxo-1,2-dihydropyridine-3-carboxamide]?
Answer: IC50 (MHCC97H cells; Homo sapiens): ≤ 50 nM; IC50 (EBC1 cells; Homo sapiens, EBC-1): ≤ 50 nM

Question: With `CCOc1ccn(-c2ccc(F)cc2)c(=O)c1C(=O)Nc1ccc(Oc2ccnc3cc(OCCCN4CCCCC4)c4c(c23)OCCO4)c(F)c1` [Example 33, N-(3-fluoro-4-((5-(3-(piperidin-1-yl)propoxy)-2,3-dihydro-[1,4]dioxino[2,3-f]quinolin-10-yl)oxy)phenyl)-1-(4-fluorophenyl)-4-ethoxy-2-oxo-1,2-dihydropyridine-3-carboxamide] as the molecule, how does the IC50 (MHCC97H cells; Homo sapiens) read?
Answer: The IC50 was at most 50 nM.

Question: And the IC50 (EBC1 cells; Homo sapiens, EBC-1)?
Answer: The IC50 was at most 50 nM.

Question: Which IC50 (MHCC97H cells; Homo sapiens) does the source give for `CCOc1ccn(-c2ccc(F)cc2)c(=O)c1C(=O)Nc1ccc(Oc2ccnc3cc(OCCOC)c4c(c23)OCCO4)c(F)c1` [Example 36, N-(3-fluoro-4-((5-(2-methoxyethoxy)-2,3-dihydro-[1,4]dioxino[2,3-f]quinolin-10-yl)oxy)phenyl)-1-(4-fluorophenyl)-4-ethoxy-2-oxo-1,2-dihydropyridine-3-carboxamide] here?
Answer: The IC50 was at most 50 nM.

Question: And the IC50 (EBC1 cells; Homo sapiens, EBC-1)?
Answer: The IC50 was at most 50 nM.

Question: Which IC50 (MHCC97H cells; Homo sapiens) does the source give for `CCOc1ccn(-c2ccc(F)cc2)c(=O)c1C(=O)Nc1ccc(Oc2ccnc3cc(OCC4(N)CC4)c4c(c23)OCCO4)c(F)c1` [Example 105, N-(4-((5-((1-aminocyclopropyl)methoxy)-2,3-dihydro-[1,4]dioxino[2,3-f]quinolin-10-yl)oxy)-3-fluorophenyl)-4-ethoxy-1-(4-fluorophenyl)-2-oxo-1,2-dihydropyridine-3-carboxamide] here?
Answer: Its IC50 is 50 to 200 nM.

Question: What about the IC50 (EBC1 cells; Homo sapiens, EBC-1) of the same molecule?
Answer: The IC50 was at most 50 nM.

Question: For `CC(C)n1cc(C(=O)Nc2ccc(Oc3ccnc4cc(OCC5(N)CC5)c5c(c34)OCCO5)c(F)c2)c(=O)n(-c2ccc(F)cc2)c1=O` [Example 106, N-(3-fluoro-4-((5-((1-aminocyclopropyl)methoxy)-2,3-dihydro-[1,4]dioxino[2,3-f]quinolin-1 0-yl)oxy)phenyl)-3-(4-fluorophenyl)-1-isopropyl-2,4-dioxo-1,2,3,4-tetrahydropyrimidine-5-carboxamide], which IC50 (MHCC97H cells; Homo sapiens) is on record?
Answer: Its IC50 is 50 to 200 nM.

Question: And the IC50 (EBC1 cells; Homo sapiens, EBC-1)?
Answer: Its IC50 is at most 50 nM.

Question: Which results are given for `CCOc1ccn(-c2cccc(F)c2)c(=O)c1C(=O)Nc1ccc(Oc2ccnc3cc(OC)c4c(c23)OCCO4)c(F)c1` [Example 114, N-(3-fluoro-4-((5-methoxy-2,3-dihydro-[1,4]dioxino[2,3-f]quinolin-10-yl)oxy)phenyl)-2-oxo-4-ethoxy-1-(3-fluorophenyl)-1,2-dihydropyridin-3-carboxamide]?
Answer: IC50 (MHCC97H cells; Homo sapiens): 50 to 200 nM; IC50 (EBC1 cells; Homo sapiens, EBC-1): 50 to 200 nM

Question: How did the IC50 (MHCC97H cells; Homo sapiens) turn out when `COc1cc2nccc(Oc3ccc(NC(=O)c4cn(C)c(=O)n(-c5ccc(F)cc5)c4=O)cc3F)c2c2c1OCCO2` [Example 13, N-(3-fluoro-4-((5-methoxy-2,3-dihydro-[1,4]dioxino[2,3-f]quinolin-10-yl)oxy)phenyl)-3-(4-fluorophenyl)-1-methyl-2,4-dioxo-1,2,3,4-tetrahydropyrimidine-5-carboxamide] was run?
Answer: The IC50 was 50 to 200 nM.

Question: And the IC50 (EBC1 cells; Homo sapiens, EBC-1)?
Answer: The IC50 was 50 to 200 nM.

Reference: patent US12202835B2, “Substituted aromatic ring-linked dioxinoquinazolines and dioxinoquinolines as kinase inhibitors” (BEIJING SCITECH-MQ PHARMACEUTICALS LIMITED, priority 2018, dated 2025)
